Test results from PubChem BioAssay AID1963866 (Molecular Pharmacology Branch, DTP, NCI, 2024).

Tested on: PDC KRAS tumor spheroids with HUVEC/MSC, viability
Experiment: Anticancer human tumor 349418-098-R-PDC patient-derived lung adenocarcinoma cell line growth inhibition [KRAS2]
Conditions: for IC50: curve of first compound; for viability, T/C: stronger effect = lower value
From the text: Multicellular complex tumor spheroid response to RAS pathway inhibitors in combination with a targeted agents in patient-derived cell lines with oncogenic KRAS variants from multiple cancer types
A high-throughput screen of multi-cell type tumor spheroids was designed to identify active combinations of targeted small molecules and KRAS pathway inhibitors. Complex spheroids include a stromal component modeled by human endothelial cells (HUVEC) and fibroblasts modeled by human mesenchymal stem cells (MSCs). The concentration ranges selected for each drug and investigational agent were based upon clinically achievable concentrations if the clinical Cmax of the agent was known.
Compounds. The drugs and investigational agents: BI-3406 (NSC825286), BAY-293 (NSC824723), batoprotafib (TNO155; NSC825523), sotorasib (AMG 510; NSC818433), MRTX1257 (NSC819558), elimusertib (BAY 1895344; NSC800525), molibresib (GSK525762; NSC774829), temuterkib (LY3214996; NSC803410), venetoclax (NSC766270), alisertib (NSC759677), olaparib (NSC753686), talazoparib (NSC767125), erdafitinib (NSC781556), ipatasertib (NSC767898), cabozantinib (NSC761068), nintedanib (NSC756659), abemaciclib (NSC768073), docetaxel (NSC628503), trametinib (NSC758246), and sapanisertib (NSC764658) were obtained from the National Cancer Institute (NCI) Developmental Therapeutics Program Chemical Repository. The FDA-approved anticancer drug set is available from the Developmental Therapeutics Program. […] The stock solutions were prepared in dimethyl sulfoxide (DMSO, Sigma-Aldrich, St. Louis, MO, cat. D2650) at 800-fold the tested concentration and stored at -70 degrees C prior to their use. All drugs and investigational agents were tested over a range starting from a high concentration at or near the clinical Cmax and decreasing in half-log increments. If the clinical Cmax for an agent had not been determined, the highest concentration tested was 10 microM.
Cell Culture. All cells were maintained in an incubator at 37 degrees C and 5% CO2 with 95% humidity. The PDC lines were cultured according to standard operating procedures established by the NCI PDMR (https://pdmr.cancer.gov/sops/default.htm). Briefly, all PDCs were thawed and cultured in Matrigel-coated flasks prepared with a working solution of 1X Ham's F-12 nutrient mix, without supplementation (Invitrogen, Waltham, MA, cat. 11765054), 100 U/mL penicillin-streptomycin (Invitrogen, cat. 15140122), and 2.5% Matrigel (Corning Inc., Corning, NY, cat. 354248) for the first three passages. All PDCs were cultured in complete DMEM/F-12 media containing advanced DMEM/F-12 (Invitrogen, cat. 12634028), 4.9% defined fetal bovine serum, heat inactivated (HyClone Laboratories Inc., Logan, UT, cat. SH30070.03HI), 389 ng/mL hydrocortisone (Sigma-Aldrich, cat. H4001), 9.7 ng/mL human EGF recombinant protein (Invitrogen, cat. PHG0313), 23.4 microg/mL adenine (Sigma-Aldrich, cat. A2786), 97.3 U/mL penicillin-streptomycin (Invitrogen, cat. 15140122), 1.9 mM L-glutamine (Invitrogen, cat. 25030081), and 9.7 microM Y-27632 dihydrochloride (Tocris Bioscience, Bristol, United Kingdom, cat. 1254). The PDCs were cultured in complete DMEM/F12 media without 9.7 microM Y-27632 dihydrochloride for at least two passages prior to the screen. The established cell line HOP-62 was cultured in RPMI 1640 medium, HEPES (Invitrogen, cat. 22400105) with 10% defined fetal bovine serum (HyClone Laboratories Inc., cat. SH30070.03) and 2 mM L-glutamine (Invitrogen, cat. 25030081). The pooled donor HUVEC were cultured in endothelial cell growth medium 2 (PromoCell, Heidelberg, Germany, cat. C-22011) and the hMSC were cultured in mesenchymal stem cell growth medium 2 (PromoCell, cat. C-28009). For all experiments, HUVEC and hMSC were used at passages </=5, while the malignant cell lines were used at passages </=15. […]

[1] = second compound 0.1 µM, first compound 0.0316 µM
[2] = second compound 0.1 µM, first compound 0.1 µM
[3] = second compound 0.316 µM, first compound 0.0316 µM
[4] = second compound 0.316 µM, first compound 0.1 µM
[5] = second compound 1 µM, first compound 0.0316 µM
[6] = second compound 1 µM, first compound 0.1 µM
[7] = second compound 3.16 µM, first compound 0.0316 µM
[8] = second compound 3.16 µM, first compound 0.1 µM
[9] = second compound 10 µM, first compound 0.0316 µM
[10] = second compound 10 µM, first compound 0.1 µM
[11] = second compound 0.1 µM, first compound 0.000316 µM
[12] = second compound 0.1 µM, first compound 0.001 µM
[13] = second compound 0.1 µM, first compound 0.00316 µM
[14] = second compound 0.1 µM, first compound 0.01 µM
[15] = second compound 0.316 µM, first compound 0.000316 µM
[16] = second compound 0.316 µM, first compound 0.001 µM
[17] = second compound 0.316 µM, first compound 0.00316 µM
[18] = second compound 0.316 µM, first compound 0.01 µM
[19] = second compound 1 µM, first compound 0.000316 µM
[20] = second compound 1 µM, first compound 0.001 µM
[21] = second compound 1 µM, first compound 0.00316 µM
[22] = second compound 1 µM, first compound 0.01 µM
[23] = second compound 3.16 µM, first compound 0.000316 µM
[24] = second compound 3.16 µM, first compound 0.001 µM
[25] = second compound 3.16 µM, first compound 0.00316 µM
[26] = second compound 3.16 µM, first compound 0.01 µM
[27] = second compound 10 µM, first compound 0.000316 µM
[28] = second compound 10 µM, first compound 0.001 µM
[29] = second compound 10 µM, first compound 0.00316 µM
[30] = second compound 10 µM, first compound 0.01 µM
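Further: spheroids exposed to compounds for seven days before readout.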

SMILES	IC50 (second compound 0.1 µM) [nM]	IC50 (second compound 0.316 µM) [nM]	IC50 (second compound 1 µM) [nM]	IC50 (second compound 3.16 µM) [nM]	IC50 (second compound 10 µM) [nM]	viability, T/C [1] [%]	viability, T/C [2] [%]	viability, T/C [3] [%]	viability, T/C [4] [%]	viability, T/C [5] [%]	viability, T/C [6] [%]	viability, T/C [7] [%]	viability, T/C [8] [%]	viability, T/C [9] [%]	viability, T/C [10] [%]	viability, T/C [11] [%]	viability, T/C [12] [%]	viability, T/C [13] [%]	viability, T/C [14] [%]	viability, T/C [15] [%]	further results
O=C(c1cc(Cc2n[nH]c(=O)c3ccccc23)ccc1F)N1CCN(C(=O)C2CC2)CC1 + CNCc1ccccc1-c1csc(C(C)Nc2nc(C)nc3cc(OC)c(OC)cc23)c1	4090	2900	2530	< 31.6	< 31.6	101	99.5	107	101	99.5	77.8	0.19	0.21	0.08	0.08	–	–	–	–	–	viability, T/C (second compound 0.1 µM, first compound 0.316 µM): 83%; viability, T/C (second compound 0.1 µM, first compound 1 µM): 71%; viability, T/C (second compound 0.1 µM, first compound 3.16 µM): 58.1%; viability, T/C (second compound 0.1 µM, first compound 10 µM): 31.4%; viability, T/C (second compound 0.316 µM, first compound 0.316 µM): 78.5%; viability, T/C (second compound 0.316 µM, first compound 1 µM): 69.7%; viability, T/C (second compound 0.316 µM, first compound 3.16 µM): 48.4%; viability, T/C (second compound 0.316 µM, first compound 10 µM): 29%; viability, T/C (second compound 1 µM, first compound 0.316 µM): 75.3%; viability, T/C (second compound 1 µM, first compound 1 µM): 69.6%; viability, T/C (second compound 1 µM, first compound 3.16 µM): 45.3%; viability, T/C (second compound 1 µM, first compound 10 µM): 27.8%; viability, T/C (second compound 3.16 µM, first compound 0.316 µM): 0.12%; viability, T/C (second compound 3.16 µM, first compound 1 µM): 0.11%; viability, T/C (second compound 3.16 µM, first compound 3.16 µM): 0.1%; viability, T/C (second compound 3.16 µM, first compound 10 µM): 0.11%; viability, T/C (second compound 10 µM, first compound 0.316 µM): 0.08%; viability, T/C (second compound 10 µM, first compound 1 µM): 0.07%; viability, T/C (second compound 10 µM, first compound 3.16 µM): 0.07%; viability, T/C (second compound 10 µM, first compound 10 µM): 0.17%
Cn1ncnc1[C@H]1c2n[nH]c(=O)c3cc(F)cc(c23)N[C@@H]1c1ccc(F)cc1 + C=CC(=O)N1CCN(c2nc(=O)n(-c3c(C)ccnc3C(C)C)c3nc(-c4c(O)cccc4F)c(F)cc23)C(C)C1	> 100	> 100	> 100	> 100	< 0.316	88.1	87	83	75.7	64.6	64.6	61.1	56.3	34.3	30.5	101	95.4	94.5	92.3	95.2	viability, T/C [16]: 88.4%; viability, T/C [17]: 86.8%; viability, T/C [18]: 87.6%; viability, T/C [19]: 81.1%; viability, T/C [20]: 79.3%; viability, T/C [21]: 80.5%; viability, T/C [22]: 73.3%; viability, T/C [23]: 65.8%; viability, T/C [24]: 66.6%; viability, T/C [25]: 58.1%; viability, T/C [26]: 60.9%; viability, T/C [27]: 39%; viability, T/C [28]: 43.6%; viability, T/C [29]: 43.9%; viability, T/C [30]: 29.1%
CN(C)C/C=C/C(=O)Nc1cc2c(Nc3ccc(F)c(Cl)c3)ncnc2cc1O[C@H]1CCOC1 + C=CC(=O)N1CCN(c2nc(=O)n(-c3c(C)ccnc3C(C)C)c3nc(-c4c(O)cccc4F)c(F)cc23)C(C)C1	> 100	> 100	> 100	> 100	< 0.316	99.1	94	100	87.5	80.5	78.2	55.2	64.9	27.5	32.6	104	97.8	98.7	83.3	96.6	viability, T/C [16]: 106%; viability, T/C [17]: 95.1%; viability, T/C [18]: 91.7%; viability, T/C [19]: 90.6%; viability, T/C [20]: 85.6%; viability, T/C [21]: 81%; viability, T/C [22]: 95.3%; viability, T/C [23]: 78%; viability, T/C [24]: 68.4%; viability, T/C [25]: 83.8%; viability, T/C [26]: 59.5%; viability, T/C [27]: 40.9%; viability, T/C [28]: 40.2%; viability, T/C [29]: 35.9%; viability, T/C [30]: 32.3%
